Measurements from ChEMBL document CHEMBL1152487, “3D-QSAR studies of HDACs inhibitors using pharmacophore-based alignment” (Eur J Med Chem, 2009).

Test: Inhibition of HDAC

Q: What does the source list for `O=C(CCCCCN1C(=O)c2ccccc2C1=O)NO`?
A: IC50: 0.103 µM; pIC50: 6.99

Q: Which results are given for `Cc1ccc(S(=O)(=O)Nc2ccc(/C=C/C(=O)NO)cc2)cc1`?
A: IC50: 0.3 µM; pIC50: 6.52

Q: For `O=C(Cc1ccc(NS(=O)(=O)c2ccccc2)cc1)NO`, which IC50 is on record?
A: 1 µM

Q: What about the pIC50 of the same compound?
A: 6

Q: Which pIC50 does the source give for `O=C(CCCCC/C=C/c1ccc2ccccc2c1)NO` here?
A: 8.22

Q: Which IC50 does the source give for `CC(=O)c1cc(/C=C/C(=O)NO)n(C)c1` here?
A: 11.2 µM

Q: What about the pIC50 of the same compound?
A: 4.95

Q: With `Cn1cc(C=O)cc1CCC(=O)NO` as the compound, how does the IC50 read?
A: 52.6 µM

Q: And the pIC50?
A: 4.28

Q: For `Cn1cc(C(=O)Cl)cc1/C=C/C(=O)NO`, which IC50 is on record?
A: 9.65 µM

Q: And the pIC50?
A: 5.01

Q: For `Cn1cc(C=O)cc1/C=C/C(=O)NO`, which IC50 is on record?
A: 12.2 µM

Q: What about the pIC50 of the same compound?
A: 4.92

Q: Which pIC50 does the source give for `O=C(CCCCCCC(=O)c1ccc(C(F)(F)F)cc1)NO` here?
A: 7.35

Q: Which results are given for `COc1ccc(S(=O)(=O)Nc2ccc(/C=C/C(=O)NO)cc2)cc1`?
A: IC50: 0.06 µM; pIC50: 7.22

Q: For `O=C(CCCCCCCc1ccc2ccccc2c1)NO`, which pIC50 is on record?
A: 7.6

Q: Which IC50 does the source give for `O=C(/C=C/c1ccc(NS(=O)(=O)c2ccc(Cl)cc2Cl)cc1)NO` here?
A: 0.3 µM

Q: And the pIC50?
A: 6.52

Q: With `O=C(/C=C/c1ccc(NS(=O)(=O)c2ccc(Cl)c(Cl)c2)cc1)NO` as the compound, how does the IC50 read?
A: 0.1 µM

Q: And the pIC50?
A: 7

Q: With `O=C(CCc1ccc(NS(=O)(=O)c2ccccc2)cc1)NO` as the compound, how does the IC50 read?
A: 0.1 µM

Q: What about the pIC50 of the same compound?
A: 7

Q: With `O=C(CCCCCCC(=O)c1cccnc1)NO` as the compound, how does the pIC50 read?
A: 6.82

Q: With `O=C(CCCCCCC(=O)c1ccc(N2CCN(c3ccccc3)CC2)cc1)NO` as the compound, how does the pIC50 read?
A: 8.35
